Measured values: patent EP4603105A1, “PHARMACEUTICAL COMPOSITION CONTAINING CYCLIC COMPOUND HAVING SELECTIVE KRAS INHIBITORY EFFECT AGAINST HRAS AND NRAS” (CHUGAI SEIYAKU KABUSHIKI KAISHA, priority 2022, dated 2024)
Where two headings read alike, the source gives them in different places.

Experiments:
[1] = biological target: GDP-bound KRAS wild-type protein (Homo sapiens, UniProt P01116); experiment: Binding to KRAS by surface plasmon resonance (SPR), dissociation constant KD
Procedure, shortened: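 GDP-loaded biotinylated Avi-tag RAS proteins (E. coli-expressed) captured on a Biotin CAPture chip at ~100–300 RU; single-cycle kinetics at 30°C, 100 µL/min, 75 s injections of rising compound concentrations. HBS pH 7.4 running buffer with 1 mM DTT, 10 mM MgCl2, 10 µM GDP, 4% DMSO. KD from 1:1 binding fit.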

[2] = biological target: GDP-bound NRAS wild-type protein (Homo sapiens, UniProt P01111); experiment: Binding to NRAS by surface plasmon resonance (SPR), KD and KD ratio to KRAS
Procedure, shortened: (§1)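 Recombinant RAS proteins bearing a biotinylated Avi tag and loaded with GDP served as the captured ligand, recaptured fresh every cycle. Binding responses were referenced to an uncoated surface and a buffer-only blank cycle. Dissociation constants were obtained by 1:1 model fitting at 30°C.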

HRAS wild-type protein = HRAS wild-type protein (Homo sapiens, UniProt P01112); experiment: Binding to HRAS by surface plasmon resonance (SPR), KD and KD ratio to KRAS
Procedure, shortened: as §1

[3] = tested on: human lung cancer strain NCI-H441; experiment: NCI-H441 cell proliferation inhibitory activity (CellTiter-Glo, 4 days); assay type: cell-based; conditions: read-out: NCl-H441 IC50
Procedure, shortened: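 Signal came from […] measured per well once the reagent was added. Beforehand, cells were cultured at 37°C and 5% carbon dioxide on a compound series serially diluted in dimethyl sulfoxide.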

[4] = ratio of KD for GDP-bound NRAS wild-type protein to KD for KRAS
[5] = ratio of KD for HRAS wild-type protein to KD for KRAS
[6] = Single Cycle Kinetics, 1:1 binding model
[7] = ratio of KD with respect to GDP-bound NRAS wild-type protein to KD with respect to KRAS
[8] = ratio of KD with respect to HRAS wild-type protein to KD with respect to KRAS
[9] = 50% proliferation inhibitory concentration, four days

Chain of GDP-bound KRAS wild-type protein (P01116 1-188 isoform P01116-2): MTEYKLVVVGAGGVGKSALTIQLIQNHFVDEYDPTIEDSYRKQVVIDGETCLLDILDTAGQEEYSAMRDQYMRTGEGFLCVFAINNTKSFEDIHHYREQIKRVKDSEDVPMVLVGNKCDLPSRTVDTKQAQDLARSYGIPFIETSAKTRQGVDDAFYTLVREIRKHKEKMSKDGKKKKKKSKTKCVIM
Chain of GDP-bound NRAS wild-type protein (P01111 whole entry): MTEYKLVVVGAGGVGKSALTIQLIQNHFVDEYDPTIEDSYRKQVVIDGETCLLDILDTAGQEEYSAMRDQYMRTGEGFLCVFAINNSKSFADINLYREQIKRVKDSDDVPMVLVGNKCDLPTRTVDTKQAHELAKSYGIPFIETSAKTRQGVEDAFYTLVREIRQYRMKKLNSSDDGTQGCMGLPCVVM
Chain of HRAS wild-type protein (P01112 whole entry): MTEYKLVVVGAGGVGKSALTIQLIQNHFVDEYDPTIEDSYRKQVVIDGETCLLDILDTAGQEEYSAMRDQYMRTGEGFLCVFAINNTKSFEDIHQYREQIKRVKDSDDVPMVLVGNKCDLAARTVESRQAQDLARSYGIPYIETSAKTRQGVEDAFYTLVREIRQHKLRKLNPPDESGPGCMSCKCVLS

SMILES | Kd ([1]; Single Cycle Kinetics) [nM] | NRAS /KRAS [2, 4] | HRAS /KRAS (HRAS wild-type protein; [5]) | IC50 ([3]; NCI-H441 cells, 4 days) [nM] | Kd [1, 6] [nM] | NRAS /KRAS [2, 7] | HRAS /KRAS (HRAS wild-type protein; [8]) | IC50 [3, 9] [nM] | Kd ([1]; 1:1 binding model) [nM]
CCCO[C@@H]1C[C@H]2C(=O)NC3(CC(C)(C)C3)C(=O)N(C)[C@@H](C3CCCC3)C(=O)N(C)[C@H](C(=O)N(C)CC)CC(=O)N(C)[C@@H](COCC)C(=O)N[C@@H]([C@@H](C)CC)C(=O)N3CCC[C@H]3C(=O)N(C)[C@H]3C/C=C\CCN(C3=O)[C@@H](Cc3ccc(C)cc3)C(=O)N(C)CC(=O)N[C@@H](CCc3cc(F)c(C(F)(F)F)c(F)c3)C(=O)N2C1 [PP3459] | 0.97 | A (a compound having 10 or more and less than 20 is denoted as A) | A (a compound having 10 or more and less than 20 is denoted as A) | 40.2 |  |  |  |  | 
CC[C@H](C)[C@@H]1NC(=O)[C@H](CC)N(C)C(=O)C[C@@H](C(=O)N(C)C)N(C)C(=O)[C@H](C2CCCC2)N(C)C(=O)C2(CCC2)NC(=O)[C@@H]2CCCN2C(=O)[C@H](CCc2cc(F)c(C(F)(F)F)c(F)c2)NC(=O)CN(C)C(=O)[C@H](CC2CCC(F)(F)CC2)N2CC/C=C\C[C@@H](C2=O)N(C)C(=O)CN(C)C1=O [PP1461] |  |  |  |  | 0.27 | A (a compound having 10 or more and less than 20 is denoted as A) | A (a compound having 10 or more and less than 20 is denoted as A) | 121 | 
CCCOC[C@H]1C(=O)N[C@@H]([C@@H](C)CC)C(=O)N(CCC)CC(=O)N(C)[C@H]2C/C=C\CCN(C2=O)[C@@H](Cc2ccc(C(F)F)cc2)C(=O)N(C)CC(=O)N[C@@H](CCc2cc(F)c(C(F)(F)F)c(F)c2)C(=O)N2C[C@H](OC3CCC3)C[C@H]2C(=O)N(C)C2(CCC2)C(=O)N(C)[C@@H](C(CC)CC)C(=O)N(C)[C@H](C(=O)N(C)C)CC(=O)N1C [PP3502] | 0.5 | AA (a compound having 20 or more is denoted as AA) | A (a compound having 10 or more and less than 20 is denoted as A) | 22.4 |  |  |  |  | 
CCCO[C@@H]1C[C@H]2C(=O)NC3(CC(C)(C)C3)C(=O)N(C)[C@@H](C3CCCC3)C(=O)N(C)[C@H](C(=O)N(C)CC)CC(=O)N(C)[C@@H](COCC)C(=O)N[C@@H]([C@@H](C)CC)C(=O)N(C3CC3)CC(=O)N(C)[C@H]3C/C=C\CCN(C3=O)[C@@H](Cc3ccc(C)cc3)C(=O)N(C)CC(=O)N[C@@H](CCc3ccc(C(F)(F)F)c(Cl)c3)C(=O)N2C1 [PP3462] | 0.68 | AA (a compound having 20 or more is denoted as AA) | A (a compound having 10 or more and less than 20 is denoted as A) | 39.7 |  |  |  |  | 
CCO[C@@H]1C[C@H]2C(=O)OC3(CCC3)C(=O)N(C)[C@@H](C3CCCC3)C(=O)N(C)[C@H](C(=O)N(C)C)CC(=O)N(C)[C@@H]([C@H](C)OC)C(=O)N[C@@H]([C@@H](C)CC)C(=O)N(C)CC(=O)N(C)[C@H]3C/C=C\CCN(C3=O)[C@@H](Cc3ccc(C(F)(F)F)cc3)C(=O)N(C)CC(=O)N[C@@H](CCc3ccc(C(F)(F)F)c(OC)c3)C(=O)N2C1 [PP3379] | 0.24 | A (a compound having 10 or more and less than 20 is denoted as A) | B (a compound having 3 or more and less than 10 is denoted as B) | 9.5 |  |  |  |  | 
CCC[C@H]1C(=O)N[C@@H]([C@@H](C)CC)C(=O)N(C2CC2)CC(=O)N(C)[C@H]2C/C=C\CCN(C2=O)[C@@H](Cc2ccc(C)cc2)C(=O)N(C)CC(=O)N[C@@H](CCc2cc(F)c(C(F)(F)F)c(F)c2)C(=O)N2C[C@H](OCC)C[C@H]2C(=O)NC2(CC(C)(C)C2)C(=O)N(C)[C@@H](CC(C)(C)C)C(=O)N(C)[C@H](C(=O)N(C)C)CC(=O)N1C [PP2718] |  | A (a compound having 10 or more and less than 20 is denoted as A) | A (a compound having 10 or more and less than 20 is denoted as A) | 7.6 |  |  |  |  | 0.33
CCC[C@@H]1NC(=O)C[C@@H](C(=O)N(C)C)N(C)C(=O)[C@H](C2CCCC2)N(C)C(=O)C2(CC(C)(C)C2)NC(=O)[C@@H]2C[C@@H](OCC)CN2C(=O)[C@H](CCc2ccc(C(F)(F)F)c(OC)c2)NC(=O)CN(C)C(=O)[C@H](Cc2ccc(C(F)(F)F)cc2)N2CC/C=C\C[C@@H](C2=O)N(C)C(=O)CN(C)C(=O)[C@H]([C@@H](C)CC)NC1=O [PP3447] | 0.16 | A (a compound having 10 or more and less than 20 is denoted as A) | A (a compound having 10 or more and less than 20 is denoted as A) | 19.1 |  |  |  |  | 
CCO[C@H](C)[C@@H]1NC(=O)[C@H](CC(C)C)N(C)C(=O)C[C@@H](C(=O)N(C)C)N(C)C(=O)[C@H](C2CCCC2)N(C)C(=O)C2(CC(C)(C)C2)NC(=O)[C@@H]2C[C@H](C)CN2C(=O)[C@H](CCc2ccc(C(F)(F)F)c(OC)c2)NC(=O)CN(C)C(=O)[C@H](Cc2ccc(C)cc2)N2CC/C=C\C[C@@H](C2=O)N(C)C(=O)CN(C)C1=O [PP2412] |  | A (a compound having 10 or more and less than 20 is denoted as A) | B (a compound having 3 or more and less than 10 is denoted as B) | 21 |  |  |  |  | 0.15
C#CCN1CC(=O)N(C)[C@H]2C/C=C\CCN(C2=O)[C@@H](Cc2ccc(C(F)F)cc2)C(=O)N(C)CC(=O)N[C@@H](CCc2ccc(C(F)(F)F)cc2Cl)C(=O)N2C[C@H](OC(C)C)C[C@H]2C(=O)N(C)C2(CCC2)C(=O)N(C)[C@@H](C(CC)CC)C(=O)N(C)[C@H](C(=O)N(C)C)CC(=O)N(C)[C@@H](CC(C)C)C(=O)N[C@@H]([C@@H](C)CC)C1=O [PP3495] | 0.72 | AA (a compound having 20 or more is denoted as AA) | A (a compound having 10 or more and less than 20 is denoted as A) | 37.9 |  |  |  |  | 
CCC[C@H]1C(=O)N[C@@H]([C@@H](C)CC)C(=O)N2CCCC[C@H]2C(=O)N(C)[C@H]2C/C=C\CCN(C2=O)[C@@H](Cc2ccc(C)cc2)C(=O)N(C)CC(=O)N[C@@H](CCc2ccc(C(F)(F)F)c(Cl)c2)C(=O)N2C[C@H](OCC)C[C@H]2C(=O)N(C)C2(CCC2)C(=O)N(C)[C@@H](C2CCCC2)C(=O)N(C)[C@H](C(=O)N(C)C)CC(=O)N1C [PP3275] | 1.7 | B (a compound having 3 or more and less than 10 is denoted as B) | B (a compound having 3 or more and less than 10 is denoted as B) | 84.8 |  |  |  |  | 
CCO[C@@H]1C[C@H]2C(=O)NC3(CCC3)C(=O)N(C)[C@@H](C3CCCC3)C(=O)N(C)[C@H](C(=O)N(C)C)CC(=O)N(C)[C@@H](CSC)C(=O)N[C@@H]([C@@H](C)CC)C(=O)N(C)CC(=O)N(C)[C@H]3C/C=C\CCN(C3=O)[C@@H](CC3CCCCC3)C(=O)N(C)CC(=O)N[C@@H](CCc3cc(F)c(C(F)(F)F)c(F)c3)C(=O)N2C1 [PP1463] |  |  |  |  | 0.13 | A (a compound having 10 or more and less than 20 is denoted as A) | A (a compound having 10 or more and less than 20 is denoted as A) | 44.5 | 
CCCOC[C@@H]1NC(=O)C[C@@H](C(=O)N(C)CCC)N(C)C(=O)[C@H](C2CCCC2)N(C)C(=O)C2(CC(C)(C)C2)NC(=O)[C@@H]2C[C@@H](OCC)CN2C(=O)[C@H](CCc2cc(F)c(C(F)(F)F)c(F)c2)NC(=O)CN(C)C(=O)[C@H](Cc2ccc(C(F)(F)F)cc2)N2CC/C=C\C[C@@H](C2=O)N(C)C(=O)CN(C)C(=O)[C@H]([C@@H](C)CC)NC1=O [PP3451] | 0.35 | A (a compound having 10 or more and less than 20 is denoted as A) | A (a compound having 10 or more and less than 20 is denoted as A) | 26.2 |  |  |  |  | 
C#CCN1CC(=O)N(C)[C@H]2C/C=C\CCN(C2=O)[C@@H](Cc2ccc(C)cc2)C(=O)N(C)CC(=O)N[C@@H](CCc2ccc(C(F)(F)F)c(Cl)c2)C(=O)N2C[C@H](OCC)C[C@H]2C(=O)NC2(CC(C)(C)C2)C(=O)N(C)[C@@H](C2CCCC2)C(=O)N(C)[C@H](C(=O)N(C)C)CC(=O)N(C)[C@@H](CCC)C(=O)N[C@@H](CC(C)C)C1=O [PP2526] |  | A (a compound having 10 or more and less than 20 is denoted as A) | B (a compound having 3 or more and less than 10 is denoted as B) | 54.5 |  |  |  |  | 4
CC[C@H](C)[C@@H]1NC(=O)[C@H](CC)N(C)C(=O)C[C@@H](C(=O)N(C)C)N(C)C(=O)[C@H](C2CCCC2)N(C)C(=O)C2(CCC2)NC(=O)[C@H](C)NC(=O)[C@H](CCc2cc(F)c(C(F)(F)F)c(F)c2)NC(=O)CN(C)C(=O)[C@H](Cc2ccc(C(F)(F)F)cc2)N2CC/C=C\C[C@@H](C2=O)N(C)C(=O)CN(C)C1=O [PP1140] |  |  |  |  | 0.15 | A (a compound having 10 or more and less than 20 is denoted as A) | A (a compound having 10 or more and less than 20 is denoted as A) | 1780 | 
